Reference: ChEMBL document CHEMBL1201862, “PubChem BioAssay data set” (2004)
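Cells were grown in 96-well plates and exposed to each compound for 48 hours at five concentrations; endpoints were interpolated linearly between bracketing concentrations, or set to the highest concentration if not reached. GI50 = concentration required for 50% inhibition of growth.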 Calls of active or inactive are those of the source. Rule as the data show it: active = GI50 up to about 1.1 µM and inactive = higher.

Legend:
Experiment in all cases: growth of human tumour cells (NCI), 48 h
Malme-3M = system: Malme-3M
NCI-H460 = system: NCI-H460
Hs-578T = system: Hs-578T
SK-MEL-5 = system: SK-MEL-5
SF-295 = system: SF-295
M19-MEL = system: M19-MEL
NCI-H23 = system: NCI-H23
OVCAR-3 = system: OVCAR-3
NCI-H522 = system: NCI-H522
NCI-H226 = system: NCI-H226
BT-549 = system: BT-549
DLD-1 = system: DLD-1
SR = system: SR
SN12C = system: SN12C
HCT-15 = system: HCT-15
KM-20L2 = system: KM-20L2
OVCAR-4 = system: OVCAR-4
CCRF-CEM = system: CCRF-CEM
SF-539 = system: SF-539
SF-268 = system: SF-268
U-251 = system: U-251
SW-620 = system: SW-620
HL-60 = system: HL-60
SNB-75 = system: SNB-75
CAKI-1 = system: CAKI-1
TK-10 = system: TK-10
UACC-257 = system: UACC-257
HCC 2998 = system: HCC 2998
T47D = system: T47D
SK-OV-3 = system: SK-OV-3
MDA-MB-231 = system: MDA-MB-231
RPMI-8226 = system: RPMI-8226
EKVX = system: EKVX
OVCAR-8 = system: OVCAR-8
MCF7 = system: MCF7
DMS-273 = system: DMS-273
SNB-78 = system: SNB-78
SK-MEL-28 = system: SK-MEL-28
HOP-92 = system: HOP-92
DMS-114 = system: DMS-114
MOLT-4 = system: MOLT-4
UO-31 = system: UO-31
UACC-62 = system: UACC-62
COLO 205 = system: COLO 205
A549 = system: A549
M14 = system: M14
SNB-19 = system: SNB-19
OVCAR-5 = system: OVCAR-5
LXFL 529 = system: LXFL 529
HCT-116 = system: HCT-116
A498 = system: A498
MDA-N = system: MDA-N
K562 = system: K562
ACHN = system: ACHN
PC-3 = system: PC-3
LOX IMVI = system: LOX IMVI
RXF 393 = system: RXF 393
HT-29 = system: HT-29
786-0 = system: 786-0
XF498 = system: XF498
IGROV-1 = system: IGROV-1
NCI/ADR-RES = system: NCI/ADR-RES
MDA-MB-435 = system: MDA-MB-435
HOP-62 = system: HOP-62
DU-145 = system: DU-145
SK-MEL-2 = system: SK-MEL-2
KM12 = system: KM12
HOP-18 = system: HOP-18

Measured: GI50

CC12C=CC(=O)C=C1CCC1C3CCC(O)(C(=O)CO)C3(C)CC(O)C12F (stereo unspecified)
active: CCRF-CEM 0.536 µM
> 100 µM: HCT-15
inactive: Malme-3M > 100 µM | NCI-H460 > 100 µM | Hs-578T > 100 µM | SK-MEL-5 > 100 µM | SF-295 > 100 µM | M19-MEL > 100 µM | NCI-H23 > 100 µM | OVCAR-3 > 100 µM | NCI-H522 > 100 µM | NCI-H226 > 100 µM | BT-549 95.3 µM | DLD-1 > 100 µM | SR > 100 µM | SN12C > 100 µM | KM-20L2 > 100 µM | OVCAR-4 > 100 µM | SF-539 > 100 µM | SF-268 > 100 µM | U-251 > 100 µM | SW-620 > 100 µM | HL-60 > 100 µM | SNB-75 > 100 µM | CAKI-1 > 100 µM | TK-10 > 100 µM | UACC-257 > 100 µM | HCC 2998 > 100 µM | T47D > 100 µM | SK-OV-3 > 4.88 µM | MDA-MB-231 > 100 µM | RPMI-8226 17.1 µM | EKVX 43.5 µM | OVCAR-8 > 100 µM | MCF7 > 100 µM | DMS-273 > 100 µM | SNB-78 > 100 µM | SK-MEL-28 > 100 µM | HOP-92 > 100 µM | DMS-114 > 100 µM | MOLT-4 > 100 µM | UO-31 > 100 µM | UACC-62 > 100 µM | COLO 205 > 100 µM | A549 > 100 µM | M14 > 100 µM | SNB-19 > 100 µM | OVCAR-5 > 76.4 µM | LXFL 529 > 100 µM | HCT-116 > 100 µM | A498 > 100 µM | MDA-N > 100 µM | K562 > 100 µM | ACHN > 100 µM | PC-3 > 100 µM | LOX IMVI > 100 µM | RXF 393 > 100 µM | HT-29 > 100 µM | 786-0 > 100 µM | XF498 > 100 µM | IGROV-1 > 100 µM | NCI/ADR-RES > 100 µM | MDA-MB-435 > 100 µM | HOP-62 > 100 µM | DU-145 > 100 µM | SK-MEL-2 > 100 µM | KM12 > 100 µM

O=C(c1ccc(Cl)cc1)N(C(=S)N1CCN(c2ccccn2)CC1)c1ccccc1
inactive: Malme-3M > 100 µM | NCI-H460 > 100 µM | SK-MEL-5 39.6 µM | SF-295 99.3 µM | M19-MEL > 100 µM | NCI-H23 > 100 µM | OVCAR-3 66.4 µM | NCI-H522 > 100 µM | NCI-H226 24.9 µM | DLD-1 > 100 µM | SR 39.3 µM | SN12C > 100 µM | KM-20L2 > 100 µM | OVCAR-4 > 100 µM | CCRF-CEM > 100 µM | SF-539 > 100 µM | SF-268 > 100 µM | U-251 > 100 µM | SW-620 > 100 µM | HL-60 32.7 µM | SNB-75 > 100 µM | CAKI-1 > 100 µM | TK-10 > 100 µM | UACC-257 > 100 µM | SK-OV-3 > 100 µM | RPMI-8226 82.4 µM | OVCAR-8 > 100 µM | DMS-273 78.3 µM | SNB-78 > 100 µM | SK-MEL-28 > 100 µM | HOP-18 > 100 µM | HOP-92 > 100 µM | DMS-114 42.5 µM | MOLT-4 43.6 µM | UO-31 68.9 µM | UACC-62 > 100 µM | COLO 205 > 100 µM | A549 94.2 µM | M14 > 100 µM | SNB-19 > 100 µM | OVCAR-5 > 100 µM | LXFL 529 55.2 µM | HCT-116 97.5 µM | K562 41.7 µM | ACHN > 100 µM | LOX IMVI > 100 µM | RXF 393 15.6 µM | HT-29 > 100 µM | 786-0 > 100 µM | IGROV-1 > 100 µM | HOP-62 > 100 µM | SK-MEL-2 > 100 µM | KM12 > 100 µM
> 100 µM: HCT-15
